Measurements published in US6211242A, “Benzamide derivatives as vasopressin antagonists” (Fujisawa Pharmaceutical Co., Ltd., priority 1994, dated 2001).
pIC50: −log10 of the molar value.

Legend:
[1] = molecular target: T1, human V2 receptor (Homo sapiens, UniProt P30518); experiment: Vasopressin 2 (V2) receptor binding (competition with 3H-vasopressin, CHO cells expressing human V2 receptor); conditions: 0.5 nM 3H-vasopressin, CHO cell membranes, 2 hours at 22° C., pH 7.4
T1 construct: expressed in transfected cells
Description: Vasopressin 2 (V2) receptor binding
For binding assays, the receptor cDNA was permanently expressed in Chinese hamster ovary (CHO) cells. CHO cells were transfected with a vector directing expression of the cDNA for the human V2 receptor and the clonal cell lines expressing human V2 receptor was established essentially as described previously (Nakajima, Y., et. al. J. Biol. Chem., 1992, 267, 2437).
DNA-transfected cells were harvested and homogenized in ice cold 250 mM sucrose buffer containing 25 mM Tris-HCl (pH 7.4), 10 mM MgCl2, 1 mM EDTA and 5 μg/ml p-amidinophenylmethylsulfonyl fluoride (A-PMSF). The homogenate was centrifuged at 500×g for 10 minutes. The supernatant was centrifuged at 100,000×g for 1 hour. The final pellet was suspended in 25 mM Tris-HCl (pH 7.4) buffer (containing 10 mM […], 1 mM EDTA and 5 μg/ml A-PMSF), and stored in small aliquots at -80° C.
Competition assays were conducted at equilibrium (2 hours at 22° C.) by using 0.5 nM ^3 H-vasopressin (40-87 Ci/mmol, New England Nuclear) in 100 mM Tris-HCl (pH 7.4) buffer (containing 5 mM MgCl2, 5 μg/ml A-PMSF, 4 μg/ml leupeptin, 40 μg/ml bacitracin, 20 μg/ml chymostatin and 0.1% bovine serum albumin). Nonspecific binding was determined by using 1 μM vasopressin. After incubation, reaction mixture was rapidly filtered through Whatman glass filter (GF/C). […] The radioactivity was counted in a liquid scintilation counter. […]

[2] = molecular target: T2, Vasopressin 1 (V1) receptor (Homo sapiens, UniProt P37288); experiment: Vasopressin 1 (V1) receptor binding (competition with 3H-vasopressin, platelet membrane preparation); conditions: 1.5 nM 3H-vasopressin, platelet membranes, 15 minutes at 30° C., pH 7.4
T2 construct: Platelet-rich plasma (PRP) was prepared by centrifugation of whole blood; from tissue; host or cells: platelet membranes from blood of normal subjects
Description: Vasopressin 1 (V1) receptor binding
Blood was obtained by venipuncture from normal subjects. Platelet-rich plasma (PRP) was prepared by centrifugation of whole blood at 200×g for 10 minutes. PRP was centrifuged at 45,000×g for 30 minutes. The remaining pellet was resuspended in 10 volume of ice cold 100 mM Tris-HCl (pH 7.4) buffer (containing 5 mM MgCl2, 0.1% bovine serum albumin and 1 mM EGTA), and centrifuged at 45,000×g for 30 minutes again. The final pellet was resuspended in 100 mM Tris-HCl buffer. The resulting membrane preparation was used immediately for the binding assay.
Competition assays were conducted at equilibrium (15 minutes at 30° C.) by using 1.5 nM ^3 H-vasopressin (40-87 Ci/mmol; New England Nuclear) in 100 mM Tris-HCl (pH 7.4) buffer. Nonspecific binding was determined by using 1 μM vasopressin. After incubation, reaction was terminated by adding 5 ml of ice-cold 100 mM Tris-HCl (pH 7.4) buffer, and then filtered rapidly through Whatman glass filter (GF/C). The filter was washed twice with the same buffer. The glass filter was mixed with liquid scintilation cocktail, and radioactivity was counted in a liquid scintilation counter. Competition activity of the test compound was represented by IC50 values.

T1 sequence (P30518 whole entry): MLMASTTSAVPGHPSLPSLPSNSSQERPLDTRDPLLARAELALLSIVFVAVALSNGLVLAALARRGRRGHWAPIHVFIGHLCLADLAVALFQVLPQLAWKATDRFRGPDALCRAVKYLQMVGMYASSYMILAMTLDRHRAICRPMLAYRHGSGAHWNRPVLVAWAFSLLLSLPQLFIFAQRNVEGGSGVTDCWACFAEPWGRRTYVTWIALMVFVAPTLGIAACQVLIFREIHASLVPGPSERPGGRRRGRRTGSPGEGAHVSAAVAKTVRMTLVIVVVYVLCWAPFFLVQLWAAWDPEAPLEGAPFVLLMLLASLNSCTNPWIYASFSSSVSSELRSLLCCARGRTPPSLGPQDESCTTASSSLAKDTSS
T2 sequence (P37288 whole entry): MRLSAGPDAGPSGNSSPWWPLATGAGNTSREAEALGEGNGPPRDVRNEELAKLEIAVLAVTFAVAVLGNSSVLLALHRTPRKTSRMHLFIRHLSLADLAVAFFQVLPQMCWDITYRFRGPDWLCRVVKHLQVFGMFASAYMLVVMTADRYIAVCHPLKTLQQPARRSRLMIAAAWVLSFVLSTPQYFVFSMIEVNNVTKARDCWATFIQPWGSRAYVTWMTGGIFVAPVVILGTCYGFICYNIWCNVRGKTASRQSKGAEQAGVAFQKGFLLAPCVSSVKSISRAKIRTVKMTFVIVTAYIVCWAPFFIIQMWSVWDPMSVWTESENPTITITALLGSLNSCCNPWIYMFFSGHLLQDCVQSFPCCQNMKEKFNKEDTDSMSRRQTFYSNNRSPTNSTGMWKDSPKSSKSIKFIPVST

| SMILES | pIC50 [1] | pIC50 [2] |
| --- | --- | --- |
| Cc1ccc(-c2ccccc2C(=O)Nc2ccc(C(=O)N(C)c3ccccc3OCc3ccc(C(=O)N4CCN(C)CC4)cc3)cc2)cc1 [27-36)] | 8.52 | – |
| Cc1ccc(-c2ccccc2C(=O)Nc2ccc(C(=O)N(C)c3ccccc3OCCN(C)CCC(=O)N3CCN(C)CC3)cc2)cc1 [71-1)] | 8.36 | – |
| Cc1ccc(N(C)C(=O)c2ccc(NC(=O)c3ccccc3C)cc2)c(OCCCCCC(=O)N2CCN(C)CC2)c1 [27-58), 4-(Methylphenyl-2-carboxamido)-N-methyl-N-[4-methyl-2-[5-(4-methylpiperazin-1-yl)carbonylpent-1-yloxy]phenyl]benzamide] | – | 8.36 |
